These results are taken from paper PMC6429202, “Drug-1,3,4-Thiadiazole Conjugates as Novel Mixed-Type Inhibitors of Acetylcholinesterase: Synthesis, Molecular Docking, Pharmacokinetics, and ADMET Evaluation” (Molecules, 2019).

As usually defined, the IC50 is the point on the concentration scale where inhibition reaches its midpoint. The Ki is a dissociation constant, usually derived from enzyme kinetics or from competition with a known ligand.

Like-named read-outs stand apart in the source and are kept apart here.

Assay [1] addresses T1, AChE from human erythrocytes (Homo sapiens, UniProt P22303).
T1 construct: AChE from human erythrocytes; from tissue; host or cells: human erythrocytes
The experiment in a line: Acetylcholinesterase inhibition assay (Ellman method). It counts as biochemical. On the procedure: The inhibitory activities of the synthesized compounds were analyzed spectrophotometrically using acetylthiocholine iodide as the substrate by following the method of Ellman et al.. In general, the reaction mixture comprised 180 µL of 50 mM of Tris HCl buffer (pH 8.0) with 0.1 M of sodium chloride and 0.02 M of magnesium chloride, to which 20 µL of enzyme (AChE, EC 3.1.1.7, AChE from human erythrocytes) solution was added (50 U in each well). The synthesized compounds (10 µL at the concentration being tested for their impact on growth) were added to the reaction mixture, and the mixtures were pre-incubated for 30 min at 4 °C. Then, 5,5′-dithiobis(2-nitrobenzoic acid) (0.3 mM, 20 µL) and acetylthiocholine iodide (1.8 mM, 20 µL) were added to the assay solution, and the mixtures were incubated at 37 °C for 10 min. After the incubation period, the absorbance of each well was measured at 412 nm. For the non-enzymatic reaction, the assays were carried out with a blank containing all the components except AChE. The assay measurements were collected at […] using a microplate reader (OPTI Max, Tunable, Molecular Devices, Sunnyvale, CA, USA). IC50 values were calculated using GraphPad Prism 5.0 through non-linear regression. Each experiment was performed in triplicate.
The percentage of inhibition of […] was calculated: inhibition (%) = [(Blank−Sample)/Blank] × 100.
For orientation: In Ellman's method for cholinesterases, released thiocholine reacts with DTNB.

Assay [2] in a line: DPPH free radical scavenging assay. To be noted: tested at 100 µg/mL; compared with vitamin C. The method, then: The synthesized compounds were further evaluated for their 2,2-diphenyl-1-picrylhydrazyl (DPPH) radical scavenging capacity. To evaluate their DPPH inhibition abilities, a radical scavenging assay was performed. The assay mixtures contained 20 µL of increasing concentrations of the test compounds and 100 µL of DPPH (150 µM), and the total volume of each well was brought up to 200 µL with methanol. Then, the mixture was incubated for 30 min at room temperature. For comparison and assay validity, ascorbic acid (vitamin C) was used as a positive control. The absorbance was recorded at 517 nm using a microplate reader (OPTI Max, Tunable). The results were calculated as percent inhibition. All of the concentrations were evaluated in triplicate.
(In general: Loss of DPPH colour is used to gauge radical scavenging.)

The target in assay [3] is T1, AChE from human erythrocytes. The experiment in a line: Kinetic study of AChE inhibition (Lineweaver–Burk plots). It counts as biochemical. Conditions: for Vmax: substrate acetylthiocholine iodide. On the procedure:
To determine the inhibition mechanism, a kinetic study was carried out. Compound 3b was selected from the synthesized compounds for kinetic analysis to determine its inhibition potential. The identification of the inhibition mode of compound 3b began by using a series of concentrations of acetylthiocholine iodide (0.00 µM, 0.009 µM, 0.018 µM, and 0.036 µM) with various concentrations of 3b. […] The highest reaction rates were calculated from the initial linear portion of the absorbance plot, which represented the five minutes following the addition of the enzyme, and absorbance data were collected at 30-second intervals. The type of enzyme inhibition was determined from the Lineweaver–Burk plots of the inverse of velocity (1/V) versus the inverse of substrate concentration (1/[S] mM^−1).
The efficiency of 3b in blocking the free enzyme and enzyme–substrate complex was investigated in terms of its enzyme inhibition (EI) and enzyme–substrate inhibition (ESI) constants. […] The plots of the effects of complex 3b were linear and appeared in the second quadrant.

Setting [4] is: mean ± SEM, triplicate, substrate acetylthiocholine iodide, read-out: Acetylcholine Esterase (from Human Erythrocytes) IC50 ± SEM.

T1 sequence (P22303 other isoform, or with tags, fused parts or gaps): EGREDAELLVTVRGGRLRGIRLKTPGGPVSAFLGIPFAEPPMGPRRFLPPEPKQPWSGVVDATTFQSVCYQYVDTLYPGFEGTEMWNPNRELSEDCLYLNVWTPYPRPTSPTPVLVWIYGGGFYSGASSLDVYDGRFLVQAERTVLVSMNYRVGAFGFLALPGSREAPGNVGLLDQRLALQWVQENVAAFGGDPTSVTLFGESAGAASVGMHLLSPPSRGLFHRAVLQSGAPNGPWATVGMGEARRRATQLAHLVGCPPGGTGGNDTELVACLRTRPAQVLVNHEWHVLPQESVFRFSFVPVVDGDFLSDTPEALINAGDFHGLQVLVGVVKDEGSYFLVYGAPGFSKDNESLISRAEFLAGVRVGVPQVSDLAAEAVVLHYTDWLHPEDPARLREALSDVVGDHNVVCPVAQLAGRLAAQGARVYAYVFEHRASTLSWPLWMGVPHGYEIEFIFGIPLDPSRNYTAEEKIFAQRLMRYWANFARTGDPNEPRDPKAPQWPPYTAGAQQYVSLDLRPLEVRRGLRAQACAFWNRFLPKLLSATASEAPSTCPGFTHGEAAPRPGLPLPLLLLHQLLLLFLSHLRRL

Turning to `Nc1nnc(-c2cn(C3CC3)c3cc(N4CCN(C(=O)c5ccc(Cl)cc5Cl)CC4)c(F)cc3c2=O)s1` [Compound 3i, 3-(5-amino-1,3,4-thiadiazol-2-yl)-1-cyclopropyl-7-(4-(2,4-dichlorobenzoyl)piperazin-1-yl)-6-fluoroquinolin-4(1H)-one], in assay [1] (setting [4]), the half-maximal inhibitory concentration (IC50) was 29.2 ± 1.46 µM.

As for `Nc1nnc(-c2cn(C3CC3)c3cc(N4CCN(C(=O)c5cccc([N+](=O)[O-])c5)CC4)c(F)cc3c2=O)s1` [Compound 3g, 3-(5-amino-1,3,4-thiadiazol-2-yl)-1-cyclopropyl-6-fluoro-7-(4-(3-nitrobenzoyl)piperazin-1-yl)qui nolin-4(1H)-one], in assay [1] (setting [4]), the IC50 was found to be 1.18 ± 0.0591 µM. On the same count and under the same terms, the same measure for `COc1ccc2cc([C@H](C)c3nnc(N)s3)ccc2c1` [Compound 3e, (S)-5-(1-(6-methoxynaphthalen-2-yl)ethyl)-1,3,4-thiadiazol-2-amine]: 3.81 ± 0.19 µM. The same measure, in the same setting: the figure for `C[C@@H]1COc2c(N3CCN(C)CC3)c(F)cc3c(=O)c(-c4nnc(N)s4)cn1c23` [Compound 3c, (R)-6-(5-amino-1,3,4-thiadiazol-2-yl)-9-fluoro-3-methyl-10-(4-methylpiperazin-1-yl)-2H-[1,4]oxazino[2,3,4-ij]quinolin-7(3H)-one] is 0.5763 ± 0.0036 µM.

Compound `Nc1nnc(-c2cn(C3CC3)c3cc(N4CCNCC4)c(F)cc3c2=O)s1` [Compound 3a, 3-(5-amino-1,3,4-thiadiazol-2-yl)-1-cyclopropyl-6-fluoro-7-(piperazin-1-yl)quinolin-4(1H)-one] came in with an IC50 in assay [1] of 0.126 ± 0.0036 µM. Besides, the “Free radical scavenging potency (DPPH)” value in assay [2] is listed as “excellent radical scavenging potency”. In the case of `CC(C)Cc1ccc(C(C)c2nnc(N)s2)cc1` (stereo not shown) [Compound 3d, 5-(1-(4-isobutylphenyl)ethyl)-1,3,4-thiadiazol-2-amine], the IC50 in assay [1] (setting [4]) was found to be 2.24 ± 0.112 µM.

For `C[C@@H]1COc2c(N3CCNCC3)c(F)cc3c(=O)c(-c4nnc(N)s4)cn1c23` [Compound 3b, (R)-6-(5-amino-1,3,4-thiadiazol-2-yl)-9-fluoro-3-methyl-10-(piperazin-1-yl)-2H-[1,4]oxazino[2,3,4-ij]quinolin-7(3H)-one], the IC50 in assay [1] (setting [4]) amounted to 0.0181 ± 0.0009 µM. Moreover, the results for the Vmax in assay [3] (3b concentration 0.009 µM), in assay [3] (3b concentration 0.018 µM) and in assay [3] (3b concentration 0.036 µM) were 0.000467 ΔA/Sec, 0.000343 ΔA/Sec and 0.000183 ΔA/Sec, respectively. The “Mode of inhibition of AChE” value in assay [3] (Lineweaver–Burk analysis) was “mixed mode of inhibition”. In assay [3] (from plot of slope versus inhibitor concentration, read-out: Ki (EI dissociation constant)), the Ki amounted to 0.0031 µM. The “Free radical scavenging potency (DPPH)” value in assay [2] is “excellent radical scavenging potency”. As to `COc1ccc(C(=O)N2CCN(c3cc4c(cc3F)c(=O)c(-c3nnc(N)s3)cn4C3CC3)CC2)cc1` [Compound 3h, 3-(5-amino-1,3,4-thiadiazol-2-yl)-1-cyclopropyl-6-fluoro-7-(4-(4-methoxybenzoyl)piperazin-1-yl)quinolin-4(1H)-one], the IC50 in assay [1] (setting [4]) was found to be 1.71 ± 0.0865 µM.

As for `Nc1nnc(COCCN2CCN(C(c3ccccc3)c3ccc(Cl)cc3)CC2)s1` (stereo not shown) [Compound 3f, 5-((2-(4-((4-chlorophenyl)(phenyl)methyl)piperazin-1-yl)ethoxy)methyl)-1,3,4-thiadiazol-2-amine], in assay [1] (setting [4]), the IC50 stood at 17.3 ± 0.863 µM.
